Values quoted from earlier work, collected in paper PMC7904743, “WIDOCK: a reactive docking protocol for virtual screening of covalent inhibitors” (Journal of Computer-Aided Molecular Design, 2021).
Read-outs that look alike come from different tables or passages of the source.

Key:
NUDT7 = details: protein labeling at 200 μM; experimental actives if % labeling higher than 50%; cited from earlier work
OTUB2 = details: experimental actives if % labeling higher than 50%, cited from earlier work
[1] = thiol reactivity, cited from earlier work
[2] = natural log of average kinetic rate constant
[3] = natural log of average rate constant
[4] = natural log of average rate constant k
[5] = natural logarithm of average rate constant

| Structure (SMILES) | NUDT7 % labeling (NUDT7) | OTUB2 % labeling (OTUB2; OTUB2 protein labeling) | ln(avg k) [1, 2] | ln(avg k) [1, 3] | OTUB2 % labeling (OTUB2) | ln(avg k) [1, 4] | ln(avg k) [1, 5] |
| --- | --- | --- | --- | --- | --- | --- | --- |
| CC1CCC(N(C)C(=O)CCl)CC1 (stereo not drawn) [PCM-0103019, CC1CCC(N(C)C(=O)CCl)CC1] | 0% | 0% | -16.049 | -16.049 | – | – | – |
| NC(=O)C1CCCCN1C(=O)CCl (stereo not drawn) [PCM-0102203, NC(=O)C1CCCCN1C(=O)CCl] | 0% | – | – | – | 0% | -15.988 | -15.988 |
| O=C(CCl)N(c1ccccc1)C1C=CS(=O)(=O)C1 (stereo not drawn) [PCM-0102372, O=C(CCl)N(c1ccccc1)C1C=CS(=O)(=O)C1] | 28% | – | – | – | 0% | -15.071 | -15.071 |
| N#CC(c1cccs1)N1CCN(C(=O)CCl)CC1 (stereo not drawn) [PCM-0102223, N#CC(c1cccs1)N1CCN(C(=O)CCl)CC1] | 0% | – | – | – | 0% | -15.143 | -15.143 |
| O=C(CCl)N1CCOC2CCCCC21 (stereo not drawn) [PCM-0102940, O=C(CCl)N1CCOC2CCCCC21] | 0% | 0% | -15.696 | -15.696 | – | – | – |
| O=C(CCl)NCC1COc2ccccc2O1 (stereo not drawn) [PCM-0102881, O=C(CCl)NCC1COc2ccccc2O1] | 0% | 39% | -16.328 | -16.328 | – | – | – |
| O=C(CCl)Nc1ccc(F)c(Cl)c1 [PCM-0102217, O=C(CCl)Nc1ccc(F)c(Cl)c1] | 0% | – | – | – | 14% | -15.473 | -15.473 |
| O=C(CCl)NC1CCSC1=O (stereo not drawn) [PCM-0103062, O=C(CCl)NC1CCSC1=O] | 0% | 0% | -17.032 | -17.032 | – | – | – |
| Cc1ccc(CNC(=O)CCl)cc1 [PCM-0102660, Cc1ccc(CNC(=O)CCl)cc1] | 0% | – | – | – | 63% | -16.571 | -16.571 |
| CC(NC(=O)CCl)c1ccc(Cl)cc1 (stereo not drawn) [PCM-0102334, CC(NC(=O)CCl)c1ccc(Cl)cc1] | 0% | – | – | – | 25% | -16.367 | -16.367 |
| O=C(CCl)Nc1ccccc1F [PCM-0102158, O=C(CCl)Nc1ccccc1F] | 0% | – | – | – | 51% | -16.146 | -16.146 |
| CC(c1ccc(Cl)cc1)N(C)C(=O)CCl (stereo not drawn) [PCM-0102556, CC(c1ccc(Cl)cc1)N(C)C(=O)CCl] | 39% | – | – | – | 0% | -15.842 | -15.842 |
| CC(C)N(C(=O)CCl)C1CCCC1 [PCM-0102948, CC(C)N(C(=O)CCl)C1CCCC1] | 13% | 0% | -16.391 | -16.391 | – | – | – |
| COc1ccc(C2CCCCCN2C(=O)CCl)cc1 (stereo not drawn) [PCM-0102558, COc1ccc(C2CCCCCN2C(=O)CCl)cc1] | 100% | – | – | – | 0% | -16.020 | -16.020 |
| O=C(CCl)NCc1ccc(F)cc1C(F)(F)F [PCM-0102733, O=C(CCl)NCc1ccc(F)cc1C(F)(F)F] | 6% | – | – | -16.673 | 33% | – | -16.673 |
| CCC1CN(C(=O)CCl)CCO1 (stereo not drawn) [PCM-0102436, CCC1CN(C(=O)CCl)CCO1] | 0% | – | – | – | 0% | -15.658 | -15.658 |
| N#Cc1ccc(CNC(=O)CCl)cc1 [PCM-0102946, N#Cc1ccc(CNC(=O)CCl)cc1] | 0% | 35% | -16.364 | -16.364 | – | – | – |
| Cc1oc(NC(=O)CCl)c(C#N)c1C [PCM-0102337, Cc1oc(NC(=O)CCl)c(C#N)c1C] | 0% | – | – | – | 45% | -15.944 | -15.944 |
| O=C(CCl)N1CCCCCC1 [PCM-0102751, O=C(CCl)N1CCCCCC1] | 0% | 0% | -16.327 | -16.327 | – | – | – |
| CN(CC12CC3CC(CC(C3)C1)C2)C(=O)CCl [PCM-0102942, CN(CC12CC3CC(CC(C3)C1)C2)C(=O)CCl] | 26% | 10% | -15.698 | -15.698 | – | – | – |
| CNC(=O)CNC(=O)CCl [PCM-0102279, CNC(=O)CNC(=O)CCl] | 0% | – | – | – | 10% | -16.473 | -16.473 |
